The text below walks through data of PMC11613437, “Prioritization of Eleven-Nineteen-Leukemia Inhibitors as Orally Available Drug Candidates for Acute Myeloid Leukemia” (Journal of Medicinal Chemistry, 2024).

The target of one data set is T1, NLuc-ENL YEATS (Homo sapiens, UniProt Q03111).
T1 construct: DNA encoding the ENL YEATS domain (aa 1–148) was cloned into an NLuc containing plasmid; expressed in transfected cells
T1 sequence (Q03111 1-148): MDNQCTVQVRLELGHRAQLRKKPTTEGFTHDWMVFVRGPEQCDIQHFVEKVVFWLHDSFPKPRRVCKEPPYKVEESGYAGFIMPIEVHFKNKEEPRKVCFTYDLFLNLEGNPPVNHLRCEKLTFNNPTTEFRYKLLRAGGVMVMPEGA
Nature of the data set: ENL-NanoBRET inhibitor competitive assay. Type of data set: cell-based. To be noted: HEK293T cells stably expressing NLuc-ENL YEATS, 1 μM Tracer 2, 2 h; mean ± SD, n = 3. How it is done: Approximately 1.8 × 10^4 HEK293T cells (100 μL) stably expressing NLuc-ENL YEATS were seeded into a white nonbinding 96-well assay plate and incubated overnight at 37 °C in a humidified 5% CO2 atmosphere. After removal of the medium, the cells were added with a tracer (with or without excess of unlabeled compound) in the Opti-MEM with 0.1% DMSO. After incubation at 37 °C for 2 h the assay plate was equilibrated at room temperature for 15 min. For BRET detection, the NanoGlo Substrate and the extracellular NanoLuc inhibitor (Promega, N2160) were diluted with Opti-MEM as described in protocol to afford detection solution. 50 μL of the detection solution was added per well and the plate was incubated for 3 min at room temperature. The donor emission was measured at 450 nm and the acceptor emission at 610 nm using a BioTek SYNERGY neo2 multimode reader. The BRET ratio was calculated according to the following formula: BRET ratio = [(acceptorsample/donorsample) – (acceptorno-tracer control/donorno-tracer control)] × 1000.
Sample procedures were followed for cell seeding as described in the previously described tracer affinity assay. After removal of the medium, the cells were added with a tracer in the medium (1.1 μM, 100 μL) and varied concentrations of a test compound in 0.1% DMSO (10 μL). The plate was thoroughly mixed on an orbital shaker for 15 s at 900 rpm. Then the cells were incubated at 37 °C, 5% CO2 for 2 h for BRET ratio detection as described previously.
A general note: In BRET a luciferase serves as donor, and the signal depends on an acceptor being close.

Data set [1] is described as follows: Log D at pH 7.4 (chromatographic procedure). Type of data set: physicochemical. As to conditions: n-octanol / aqueous buffer pH 7.4, pH 7.4. How it is done: Log D at 7.4, which is a partition coefficient between n-octanol and aqueous buffer pH 7.4 of the compounds was measured on the chromatographic procedure whose condition was developed based on a published method.[35]

The nature of data set [2]: In vitro metabolic stability assay in HLM. Type of data set: in vitro ADME, human. As to conditions: for CLint scaled at 1 h: read-out: Liver Microsome CLint, pred. As for the experimental part:
At 0, 5, 15, 30, 45, and 60 min, 200 μL acetonitrile (with the internal standard diclofenac as 10 μg/mL) was added to terminate the reaction, the remaining compound was analyzed by HPLC-MS/MS.
Background: Liver microsomes are a subcellular fraction often used to study metabolism.

Data set [3] can be described thus: Cell toxicity assay (CCK-8), MOLM-13. As to conditions: human, MOLM-13 cells, 8 day treatment, n = 3; read-out: CC50 MOLM-13 (Cellular IC50, 8-days incubation). Type of data set: cell-based. How it is done: (§1) Approximately 1 × 10^4 JURKAT, MOLM-13, MV4-11 and HEK293T cells in RPMI 1640 (no phenol red) (100 μL) were added to a 96-well plate and treated with DMSO or a compound at indicated concentrations for 72 h or 8 days. Cell viability was measured using the CCK-8 kit (Abcam, ab228554) according to the manufacturer’s instructions.

The nature of data set [4]: Cell toxicity assay (CCK-8), MV4-11. Type of data set: cell-based. To be noted: human, MV4-11 cells, 8 day treatment, n = 3; read-out: CC50 MV4-11 (Cellular IC50, 8-days incubation). As for the experimental part:
as §1

A short description of data set [5]: Cell toxicity assay (CCK-8), Jurkat. Type of data set: cell-based. To be noted: human, Jurkat cells; for IC50 at 8 days: 8 day treatment, n = 3, read-out: CC50 Jurkat (Cellular IC50, 8-days incubation). As for the experimental part:
as §1

The next data set in a line: PK analysis in mice. Type of data set: in vivo. To be noted: plasma; for half-life at 24 h: read-out: t1/2 (h), PO (converted). As for the experimental part: Male CD-1 mice were used in the PK study. A compound was dissolved in a mixed solution containing 75% PEG300 and 25% D5W (5% dextrose in distilled water) or another solution containing 0.5% methyl cellulose and 0.5% Tween 80 in water at indicated dosage for i.v. and p.o. administrations, respectively. Three mice were used for each administration. Blood samples were taken from a vein at different time points up to 24 h after dosing, collected in tubes coated with an anticoagulant, and centrifuged at 1.5 × 10^4 g for 5 min to obtain plasma samples. Acetonitrile-containing internal standard (Labetalol, 100 ng/mL) was added to the plasma to precipitate proteins. The samples were subjected to vortex mixing for 10 min and then centrifugation at 4 °C for 15 min at 3220g. Then clear supernatants were analyzed by HPLC-MS/MS.

The test system of another data set is MOLM-13-Luc cells. Nature of the data set: Antitumor analysis in MOLM-13-Luc xenografted NSG mice. Type of data set: in vivo. From the text:
(§2) Animal studies were approved by the Texas A&M’s Institutional Animal Care and Use Committees. The 5 week-old female NSG mice (NOD.Cg-PrkdcscidIl2rgtm1Wjl/SzJ, Jackson Laboratory #005557) were ordered and kept under pathogen-free conditions for 1 week with free access to food and water after arrival for acclimation. Tumor models in these mice were then built by engrafting 1 × 10^6 MOLM-13-Luc cells (BPS Bioscience, 78372) through tail vein injection. Tumors were allowed to grow for 6 days, and then applied for treatment by oral gavage daily (day 0 was the beginning of treatment). Dosage of 200 or 400 mg/kg (vehicle of 5% DMSO, 45% PEG400, 2.5% Tween 80, and 47.5% water) was applied. Tumor growth was evaluated by bioluminescent imaging (BLI) using an IVIS In Vivo Imaging System by intraperitoneal injection of 150 mg/kg D-Luciferin potassium salt (MedChemExpress, HY-12591B). Their body weights were recorded every 2–3 days. Surviving mice were counted every day and the mortality was calculated. No animal was excluded from any of the analyses. The investigators were not blinded to allocation during experiments and outcome assessment.

A short description of data set [6]: Body weight of xenografted NSG mice under treatment. Type of data set: in vivo.
Description: as §2

[7] abbreviates: human, human liver microsomes, pH 7.4, HLM 0.5 mg/mL, NADPH 1 mM, mean ± SD, n = 3.
The mark [8] stands for this setting: human, human liver microsomes, pH 7.4, HLM 0.5 mg/mL, NADPH 1 mM, mean ± SD, n = 3, read-out: Liver Microsome t1/2.
[9] abbreviates: mouse, male CD-1 mice, PO 20 mg/kg, read-out: AUC0–inf, oral.
Where [10] appears, read: mouse, male CD-1 mice, PO 20 mg/kg.

Read-outs that look alike come from different tables or passages of the source.

Broadly, the IC50 is the point on the concentration scale where inhibition reaches its midpoint. By chromatographic logD is commonly meant a lipophilicity value derived from retention on a column. Low values mean lower lipophilicity, high ones higher lipophilicity. As for `CC(C)[C@H]1CCN1Cc1cc2cnc(NC(=O)c3ccc4nncn4c3)cc2[nH]1` [SR-C-107 (R), (R)-N-(2-((2-Isopropylazetidin-1-yl)methyl)-1H-pyrrolo[3,2-c]pyridin-6-yl)-[1,2,4]triazolo[4,3-a]pyridine-6-carboxamide], on NLuc-ENL YEATS, the IC50 was 590 nM. In addition, the chromatographic logD in data set [1] stood at 0.97. The “Liver Microsome t1/2” value in data set [2] (HLM 0.5 mg/mL, NADPH 1 mM, mean ± SD, n = 3) was 418.30 ± 39.58 min. Further, in data set [2] (setting [7]), the CLint scaled at 1 h stood at 4.18 mL/min/kg. Also, in [2] (setting [8]), the half-life came to 418 min. Further, the concentration for half-maximal inhibition (IC50) at 8 days in data set [3] was 1.25 ± 0.18 µM; in data set [4], 0.81 ± 0.15 µM; in data set [5], more than 64 µM. For the same compound, the Cmax in the data set “PK analysis in mice” (male, CD-1, mouse, mice, PO 20 mg/kg, corresponds to 285 ng/mL, read-out: oral Cmax expressed as effective concentration) was 750 nM; in “PK analysis in mice” (mouse, male CD-1 mice, PO 20 mg/kg, read-out: Cmax, oral) it was 285 ng/mL. Moreover, the AUC(0-inf) in the data set “PK analysis in mice” (setting [9]) worked out at 808 ng·h/mL. For the same compound, the half-life at 24 h in “PK analysis in mice” (setting [10]) was 1.41 h. In addition, the “tumor growth inhibition (TGI)” value in the data set on MOLM-13-Luc cells (200 mg/kg PO QD, after 8 days of treatment) is given as 49.5%; in the data set on MOLM-13-Luc cells (200 mg/kg PO QD, day 12), 45%. Further, the median survival time in the data set with MOLM-13-Luc cells (200 mg/kg PO QD, vehicle 10) is 15 days post-treatment. Moreover, the “tolerability / body weight loss” value in data set [6] (200 mg/kg PO QD) is listed as “no significant body weight loss observed”.
The CC50 is the concentration at which the toxic effect on the cells reaches its halfway point. Low readings indicate harm at low concentration, high ones better tolerance by the cells. For the compound `CC(C)C1CCN1Cc1ccc(CNC(=O)c2ccc3nncn3c2)cc1` (centres unmarked) [inhibitor 13], the IC50 at NLuc-ENL YEATS was 4290 nM. Also, in data set [1], the chromatographic logD is 0.31. In addition, the CLint scaled at 1 h in data set [2] (setting [7]) came out at 4.09 mL/min/kg. Besides, the half-life at 1 h in data set [2] (setting [8]) was determined as 427 ± 39.8 min. For the same compound, in data set [2] (in the presence of NADPH, 60 min), the “parent compound remaining after 60 min incubation in HLM” value was “over 90%”. Besides, the IC50 at 8 days in [3] is 6.06 µM; in data set [4] it was 6.72 µM; in data set [5], 22 ± 1.79 µM. For the same compound, the half-maximal cytotoxic concentration (CC50) at 72 h in data set [5] (72 h treatment (superscript a)) was more than 64 µM. For the same compound, in the data set “PK analysis in mice” (mouse, male CD-1 mice, IV 20 mg/kg, read-out: t1/2, IV (converted)), the half-life was 63 ± 1.8 min. In “PK analysis in mice” (setting [10]), the Cmax at 24 h is 2080 ng/mL. Moreover, in “PK analysis in mice” (setting [9]), the AUC(0-inf) at 24 h amounted to 5140 ng·h/mL. The half-life at 24 h in the data set “PK analysis in mice” (setting [10]) was 0.84 h. Moreover, in the data set with MOLM-13-Luc cells (200 mg/kg PO QD), the tumor reduction result was “no noticeable tumor reduction”. The “increase in median survival” value with MOLM-13-Luc cells (400 mg/kg PO QD vs control) worked out at 33.3%. Further, the “tumor growth inhibition (TGI)” value in the data set with MOLM-13-Luc cells (400 mg/kg PO QD, after 13 days of treatment, vs control) is listed as approximately 45%. The compound further yielded a median survival in the data set on MOLM-13-Luc cells (400 mg/kg PO QD, control 15) of 20 post-treatment days. Also, the “tolerability / body weight loss” value is listed as “no significant body weight loss observed” in data set [6] (200 mg/kg PO QD) and “without significant body weight loss until day 15” in data set [6] (400 mg/kg PO QD).
